Like-named read-outs stand apart in the source and are kept apart here.
Assays:
[1] = Pharmacokinetic study in rats after oral administration of OS extract (UHPLC-QqQ-MS/MS of plasma); assay type: in vivo, rat; settings: for concentration at 0.5 h / AUC(0-t) / AUC(0-inf) / Cmax / half-life / Tmax: male
Description: The UHPLC-QqQ-MS/MS system consisted of a 1290 UHPLC and a 6470 mass spectrometer (Agilent Technologies). Chromatographic separation was realized on utilizing an ACQUITY UPLC BEH C18 column (2.1 × 100 mm, 1.7 μm) maintained at 35 °C. The mobile phase consisting of 0.1% formic acid in water (A) and acetonitrile (B) was utilized with the elution program set at 0 min–1 min, 5% B–30% B; 1 min–4 min, 30% B– 50% B; 4 min–8 min, and 50% B–90% B. The injection volume was 5 μL, and the flow rate was 0.3 mL/min. The mass spectrometry parameters in the negative ion mode, gas temperature, flow rate, and nebulizer pressure were 300 °C, 7 L/min, and 35 psi, respectively. The mass spectra properties of the 15 analytes and the IS are illustrated in Table 1.
To 100 μL of the plasma sample, 20 μL of methanol, 20 μL of IS solution (methylparaben, 1 μg/mL), and 5 μL of formic acid were added and vortexed for a duration of 2 min. Subsequently, the mixture underwent extraction with 800 μL of acetonitrile for 3 min. Following 10 min of centrifugation at 12,000 g, the supernatant was collected and evaporated to dryness under N2 to obtain the residue. Finally, the residue was reconstituted in 50% methanol (100 μL) and utilized for analysis.
Before initiating the study, six male SD rats underwent a 12-h fasting period, during which they were granted unrestricted access to water. Then, the rats were administered an oral dose of 3 g/kg of the OS extract, which had been dissolved in 0.5% CMC-Na aqueous solution. Blood samples, approximately 200 μL each, were collected at various time points: before administration and at 0.03, 0.08, 0.17, 0.25, 0.5, 0.75, 1, 2, 4, 6, 8, 10, 12, 24, 36, and 48 h post-administration. Following 10 min of centrifugation at 6,000 g, the resultant samples were stored at −80 °C.
The developed method was effectively applied to study the pharmacokinetics in rats following oral administration of the OS extract. […] This was likely due to their low concentrations in the OS extract. Ultimately, nine components (chrysin, chrysin-7-O-β-D-glucuronide, baicalin, baicalein, oroxin A, oroxin B, oroxylin A, oroxylin A-7-O-β-D-glucuronide, and scutellarein) were successfully fitted with pharmacokinetic parameters. The average plasma concentration–time profiles of these substances are depicted in Figure 3. […] All data were presented as the mean ± standard deviation (Mean ± SD).

[2] = Stability of the analytes in rat plasma samples under storage conditions; assay type: physicochemical; settings: n = 6
Description: The bioanalytical method validation was evaluated for specificity, linearity, sensitivity, precision and accuracy, recovery, matrix effect, and stability to ensure compliance with the U.S. Food and Drug Administration (FDA) guidance on precise quantitative analysis ([Center for Drug Evaluation and Research of the U.S., 2018]). The assessment of specificity was conducted by comparing the chromatograms obtained from blank plasma, blank plasma spiked with the target components, and samples gathered following the oral administration of OS extract. Calibration curves were constructed by plotting the ratio for the peak area of the analyte to IS versus the concentration, with 1/x^2 serving as the weighting factor. The lower limit of quantification (LLOQ) was defined as the concentration at which a signal to noise ratio of […] 10 was achievable. The evaluation of precision and accuracy involved the analysis of six QC samples, both within a single day and over 3 consecutive days. Accuracy was expressed as the relative error (RE), whereas precision was gauged via relative standard deviation (RSD). Extraction recovery was ascertained by juxtaposing the responses of analytes in extracted samples against those in samples that were spiked post-extraction. The matrix effect was scrutinized by determining the ratio of the responses of the analytes in post-extraction spiked samples to those in the mixed standard solution. The stability of the analytes in plasma samples was explored under diverse conditions: encompassing a 12-h period in an autosampler, a 4-h interval at room temperature, three cycles of freezing–thawing, and a 7-day duration at −80 °C.
The retention times of the analyte peaks were consistent with those in the spiked samples. […] The LLOQs for chrysin, chrysin-7-O-β-D-glucuronide, hispidulin, wogonoside, quercetin, quercetin-7-O-β-D-glucoside, baicalin, baicalein, acacetin, oroxin A, oroxin B, oroxylin A, oroxylin A-7-O-β-D-glucuronide, apigenin, and scutellarein were 1.0, 2.0, 1.0, 0.3, 1.0, 0.1, 9.0, 6.0, 0.3, 6.0, 4.0, 1.0, 2.0, 0.5, and 0.3 ng/mL, respectively. In Supplementary Table S2, the RE for accuracy is between −13.77% and 12.55%, and the RSD for precision is below 14.55% (both intra- and inter-day). […] The matrix effect varied from 60.15% to 115.53%, with RSD values below 10.54%. In Supplementary Table S4, the RSD values for stability of the analytes are found to be lower than 13.98%, meaning that these components were stable under the following conditions: encompassing a 12-h period in an autosampler, a 4-h interval at room temperature, three cycles of freezing and thawing, and a 7-day duration at −80 °C.

[3] = SD, 3 g/kg, rat plasma collected 0.5 h after oral administration of the OS extract, read-out: Concentration printed in MRM chromatogram of plasma sample (Figure 2C)
[4] = rat plasma, oral 3 g/kg OS extract, n = 6, mean ± SD, read-out: AUC(0-t)
[5] = rat plasma, oral 3 g/kg OS extract, n = 6, mean ± SD, read-out: AUC(0-∞)
[6] = rat plasma, oral 3 g/kg OS extract, n = 6, mean ± SD, read-out: Cmax
[7] = rat plasma, oral 3 g/kg OS extract, n = 6, mean ± SD, read-out: T1/2 (converted)
[8] = rat plasma, oral 3 g/kg OS extract, n = 6, mean ± SD, read-out: Tmax
[9] = spiked concentration 6400 ng/mL
[10] = spiked concentration 1600 ng/mL

| SMILES | concentration at 0.5 h [1, 3] | AUC(0-t) [1, 4] | AUC(0-inf) [1, 5] | Cmax [1, 6] | half-life [1, 7] | Tmax [1, 8] | Measured, -80°C for 7 days ([2]; spiked concentration 2 ng/mL) | Measured, Autosampler for 12 h ([2]; spiked concentration 2 ng/mL) | Measured, Room temperature for 4 h ([2]; spiked concentration 2 ng/mL) | Measured, Three freeze-thaw cycles ([2]; spiked concentration 2 ng/mL) | Measured, -80°C for 7 days ([2]; spiked concentration 20 ng/mL) | Measured, Autosampler for 12 h ([2]; spiked concentration 20 ng/mL) | Measured, Room temperature for 4 h ([2]; spiked concentration 20 ng/mL) | Measured, Three freeze-thaw cycles ([2]; spiked concentration 20 ng/mL) | Measured, -80°C for 7 days ([2]; spiked concentration 320 ng/mL) | Measured, Autosampler for 12 h ([2]; spiked concentration 320 ng/mL) | Measured, Room temperature for 4 h ([2]; spiked concentration 320 ng/mL) | Measured, Three freeze-thaw cycles ([2]; spiked concentration 320 ng/mL) | Measured, -80°C for 7 days ([2]; spiked concentration 40 ng/mL) | Measured, Autosampler for 12 h ([2]; spiked concentration 40 ng/mL) | also measured |
| --- | --- | --- | --- | --- | --- | --- | --- | --- | --- | --- | --- | --- | --- | --- | --- | --- | --- | --- | --- | --- | --- |
| O=c1cc(-c2ccc(O)cc2)oc2cc(O)c(O)c(O)c12 [Scutellarein, scutellarein] | 14 ng/mL | 89.4 ± 18.5 ng·h/mL | 95.6 ± 17.5 ng·h/mL | 47.8 ± 15.1 ng/mL | 4.07 ± 1.61 h | 0.1 ± 0.04 h | 1.77 ± 0.12 ng/mL | 2.05 ± 0.22 ng/mL | 1.84 ± 0.17 ng/mL | 1.78 ± 0.13 ng/mL | 19.80 ± 0.92 ng/mL | 19.68 ± 1.68 ng/mL | 18.12 ± 0.51 ng/mL | 21.33 ± 0.83 ng/mL | 296.10 ± 18.07 ng/mL | 327.40 ± 16.47 ng/mL | 316.24 ± 35.36 ng/mL | 292.73 ± 17.80 ng/mL |  |  |  |
| O=c1cc(-c2ccccc2)oc2cc(O[C@@H]3O[C@H](CO[C@@H]4O[C@H](CO)[C@@H](O)[C@H](O)[C@H]4O)[C@@H](O)[C@H](O)[C@H]3O)c(O)c(O)c12 [Oroxin B, oroxin B] | 1130 ng/mL | 2120 ng·h/mL | 2230 ng·h/mL | 1990 ng/mL | 3.97 ± 1.37 h | 0.22 ± 0.04 h |  |  |  |  |  |  |  |  |  |  |  |  | 37.76 ± 3.31 ng/mL | 39.10 ± 2.32 ng/mL | Measured, Room temperature for 4 h ([2]; spiked concentration 40 ng/mL): 41.95 ± 3.13 ng/mL; Measured, Three freeze-thaw cycles ([2]; spiked concentration 40 ng/mL): 38.40 ± 1.50 ng/mL; Measured, -80°C for 7 days ([2]; spiked concentration 400 ng/mL): 393.06 ± 24.72 ng/mL; Measured, Autosampler for 12 h ([2]; spiked concentration 400 ng/mL): 436.20 ± 27.56 ng/mL; Measured, Room temperature for 4 h ([2]; spiked concentration 400 ng/mL): 430.23 ± 11.61 ng/mL; Measured, Three freeze-thaw cycles ([2]; spiked concentration 400 ng/mL): 392.81 ± 19.18 ng/mL; Measured, -80°C for 7 days [2, 9]: 5937.71 ± 352.01 ng/mL; Measured, Autosampler for 12 h [2, 9]: 6506.73 ± 286.20 ng/mL; Measured, Room temperature for 4 h [2, 9]: 6564.94 ± 412.78 ng/mL; Measured, Three freeze-thaw cycles [2, 9]: 6068.65 ± 216.91 ng/mL |
| O=c1c(O)c(-c2ccc(O)c(O)c2)oc2cc(O)cc(O)c12 [Quercetin, quercetin] | 26 ng/mL |  |  |  |  | ~10 h | 1.81 ± 0.12 ng/mL | 1.90 ± 0.21 ng/mL | 1.80 ± 0.22 ng/mL | 1.80 ± 0.09 ng/mL | 17.37 ± 0.79 ng/mL | 17.83 ± 1.42 ng/mL | 19.06 ± 1.54 ng/mL | 20.46 ± 0.77 ng/mL | 285.05 ± 20.53 ng/mL | 325.17 ± 28.70 ng/mL | 298.43 ± 22.04 ng/mL | 288.07 ± 26.80 ng/mL |  |  | Plasma levels ([1]; rat plasma after oral OS extract): too weak to obtain comprehensive pharmacokinetic curves |
| COc1c(O)cc2oc(-c3ccccc3)cc(=O)c2c1O [Oroxylin A, oroxylin A] |  |  |  |  |  |  |  |  |  |  |  |  |  |  |  |  |  |  |  |  | concentration at 0.5 h ([1]; SD, rat, in vivo, po): 165 ng/mL; AUC(0-inf) ([1]; SD, rat, in vivo, po, 3 g/kg): 3010 ng·h/mL; AUC(0-t) ([1]; SD, rat, in vivo, po, 3 g/kg): 2840 ng·h/mL; Cmax ([1]; SD, rat, in vivo, po, 3 g/kg): 512 ± 179 ng/mL; Tmax ([1]; SD, rat, in vivo, po, 3 g/kg): 0.25 ± 0.00 h; half-life ([1]; SD, rat, in vivo, po, 3 g/kg): 7.7 ± 0.97 h; Measured, -80°C for 7 days ([2]; spiked concentration 10 ng/mL): 10.45 ± 0.29 ng/mL; Measured, Autosampler for 12 h ([2]; spiked concentration 10 ng/mL): 10.51 ± 1.15 ng/mL; Measured, Room temperature for 4 h ([2]; spiked concentration 10 ng/mL): 10.16 ± 0.90 ng/mL; Measured, Three freeze-thaw cycles ([2]; spiked concentration 10 ng/mL): 10.69 ± 0.70 ng/mL; Measured, -80°C for 7 days ([2]; spiked concentration 100 ng/mL): 92.00 ± 7.39 ng/mL; Measured, Autosampler for 12 h ([2]; spiked concentration 100 ng/mL): 90.43 ± 9.04 ng/mL; Measured, Room temperature for 4 h ([2]; spiked concentration 100 ng/mL): 92.23 ± 5.62 ng/mL; Measured, Three freeze-thaw cycles ([2]; spiked concentration 100 ng/mL): 88.86 ± 4.67 ng/mL; Measured, -80°C for 7 days [2, 10]: 1720.89 ± 130.14 ng/mL; Measured, Autosampler for 12 h [2, 10]: 1797.17 ± 87.55 ng/mL; Measured, Room temperature for 4 h [2, 10]: 1790.22 ± 78.72 ng/mL; Measured, Three freeze-thaw cycles [2, 10]: 1733.57 ± 149.41 ng/mL |
| O=c1cc(-c2ccccc2)oc2cc(O[C@@H]3O[C@H](CO)[C@@H](O)[C@H](O)[C@H]3O)c(O)c(O)c12 [Oroxin A, oroxin A] | 1300 ng/mL | 3990 ng·h/mL | 4060 ng·h/mL | 2890 ng/mL | 3.42 ± 2.51 h | 0.25 h |  |  |  |  |  |  |  |  |  |  |  |  | 41.12 ± 0.77 ng/mL | 39.49 ± 3.13 ng/mL | Measured, Room temperature for 4 h ([2]; spiked concentration 40 ng/mL): 38.81 ± 2.31 ng/mL; Measured, Three freeze-thaw cycles ([2]; spiked concentration 40 ng/mL): 39.17 ± 2.11 ng/mL; Measured, -80°C for 7 days ([2]; spiked concentration 400 ng/mL): 385.78 ± 15.57 ng/mL; Measured, Autosampler for 12 h ([2]; spiked concentration 400 ng/mL): 419.46 ± 28.69 ng/mL; Measured, Room temperature for 4 h ([2]; spiked concentration 400 ng/mL): 388.37 ± 19.15 ng/mL; Measured, Three freeze-thaw cycles ([2]; spiked concentration 400 ng/mL): 395.82 ± 21.75 ng/mL; Measured, -80°C for 7 days [2, 9]: 6200.94 ± 362.67 ng/mL; Measured, Autosampler for 12 h [2, 9]: 6572.01 ± 389.34 ng/mL; Measured, Room temperature for 4 h [2, 9]: 6516.27 ± 414.24 ng/mL; Measured, Three freeze-thaw cycles [2, 9]: 6021.13 ± 378.88 ng/mL |
| OCc1ccccc1O[C@@H]1O[C@H](CO)[C@@H](O)[C@H](O)[C@H]1O [salicin] |  |  |  |  |  | ~10 h |  |  |  |  |  |  |  |  |  |  |  |  |  |  |  |
